This is an account of results in paper PMC12102759 (Protein Science : A Publication of the Protein Society, 2025).

This assay relates to PABPC1 PABC. Type of assay: binding, human. The following applies: DMS-BM library, bait PABPC1 PABC, row aa = residue at this position; for DMS-derived PSSM value, position E10: E = wild type; for DMS-derived PSSM value (averaged), position T1 / DMS-derived PSSM value, position T3: T = wild type.
The mark [1] stands for this setting: prey ATXN2, TLNPNAKEFNPRSF(averaged) over the two overlapping peptides, N = wild type.
The mark [2] stands for this setting: prey ATXN2, TLNPNAKEFNPRSF(averaged) over the two overlapping peptides, F = wild type.
[3] abbreviates: prey ATXN2, peptide KSTLNPNAKEFNPRSF, F = wild type.
[4] abbreviates: prey ATXN2, peptide KSTLNPNAKEFNPRSF, P = wild type.
[5] abbreviates: prey ATXN2, peptide KSTLNPNAKEFNPRSF
The mark [6] stands for this setting: prey ATXN2, peptide TLNPNAKEFNPRSFSQ, P = wild type.
The mark [7] stands for this setting: prey ATXN2, peptide KSTLNPNAKEFNPRSF, A = wild type.
Where [8] appears, read: prey ATXN2, peptide TLNPNAKEFNPRSFSQ, S = wild type.
The mark [9] stands for this setting: prey ATXN2, peptide KSTLNPNAKEFNPRSF, N = wild type.
Where [10] appears, read: prey ATXN2, TLNPNAKEFNPRSF(averaged) over the two overlapping peptides.
The mark [11] stands for this setting: prey ATXN2, peptide TLNPNAKEFNPRSFSQ, N = wild type.
Setting [12] is: prey ATXN2, TLNPNAKEFNPRSF(averaged) over the two overlapping peptides, P = wild type.
The mark [13] stands for this setting: prey ATXN2, peptide KSTLNPNAKEFNPRSF, S = wild type.
The mark [14] stands for this setting: prey ATXN2, peptide TLNPNAKEFNPRSFSQ, F = wild type.
Setting [15] is: prey ATXN2, peptide KSTLNPNAKEFNPRSF, K = wild type.
The mark [16] stands for this setting: prey ATXN2, peptide KSTLNPNAKEFNPRSF, L = wild type.

Like-named read-outs stand apart in the source and are kept apart here.

With “TLNPNAKEFNPRSF(averaged) N3W (TLWPNAKEFNPRSF)”, the “DMS-derived PSSM value (averaged), position N3” value under setting [1] came out at 0.
As for “TLNPNAKEFNPRSF(averaged) F9N (TLNPNAKENNPRSF)”, the “DMS-derived PSSM value (averaged), position F9” value under setting [2] turned out to be 0.04813.
Still for that read-out and setting: in the case of “TLNPNAKEFNPRSF(averaged) F9T (TLNPNAKETNPRSF)” it was 0.02947.
On to “KSTLNPNAKEFNPRSF F11D (KSTLNPNAKEDNPRSF)”, for which the “DMS-derived PSSM value, position F11” value under setting [3] is recorded as 0.
Regarding “TLNPNAKEFNPRSF(averaged) F14Y (TLNPNAKEFNPRSY)”, the “DMS-derived PSSM value (averaged), position F14” value under setting [2] worked out at 0.08672.
As for KSTLNPNAKEFNPRSF P6D (KSTLNDNAKEFNPRSF), the “DMS-derived PSSM value, position P6” value under setting [4] is 0.
For “KSTLNPNAKEFNPRSF E10W (KSTLNPNAKWFNPRSF)”, the “DMS-derived PSSM value, position E10” value under setting [5] is given as 0.
“TLNPNAKEFNPRSFSQ P11Y (TLNPNAKEFNYRSFSQ)”: the “DMS-derived PSSM value, position P11” value under setting [6] is on record as 0.04593.
On to “TLNPNAKEFNPRSFSQ R12M (TLNPNAKEFNPMSFSQ)”, for which, for the setting “prey ATXN2, peptide TLNPNAKEFNPRSFSQ, R = wild type”, the “DMS-derived PSSM value, position R12” value is 0.04074.
For KSTLNPNAKEFNPRSF A8T (KSTLNPNTKEFNPRSF), the “DMS-derived PSSM value, position A8” value under setting [7] came out at 0.
With “KSTLNPNAKEFNPRSF F16L (KSTLNPNAKEFNPRSL)”, the “DMS-derived PSSM value, position F16” value under setting [3] worked out at 0.2967.
Turning to “KSTLNPNAKEFNPRSF P13A (KSTLNPNAKEFNARSF)”, the “DMS-derived PSSM value, position P13” value under setting [4] is on record as 0.005231.
In the case of “TLNPNAKEFNPRSFSQ S15R (TLNPNAKEFNPRSFRQ)”, the “DMS-derived PSSM value, position S15” value under setting [8] came out at 0.01068.
Regarding “TLNPNAKEFNPRSF(averaged) S13P (TLNPNAKEFNPRPF)”, the “DMS-derived PSSM value (averaged), position S13” value (prey ATXN2, TLNPNAKEFNPRSF(averaged) over the two overlapping peptides, S = wild type) is given as 0.06349.
In the case of KSTLNPNAKEFNPRSF N7S (KSTLNPSAKEFNPRSF), the “DMS-derived PSSM value, position N7” value under setting [9] is listed as 0.04398.
For “TLNPNAKEFNPRSF(averaged) T1M (MLNPNAKEFNPRSF)”, under setting [10], the “DMS-derived PSSM value (averaged), position T1” value amounted to 0.04356.
Consider “TLNPNAKEFNPRSFSQ N10Y (TLNPNAKEFYPRSFSQ)”, for which the “DMS-derived PSSM value, position N10” value under setting [11] turned out to be 0.09858.
For the substance “TLNPNAKEFNPRSF(averaged) P11S (TLNPNAKEFNSRSF)”, under setting [12], the “DMS-derived PSSM value (averaged), position P11” value worked out at 0.02695.
TLNPNAKEFNPRSFSQ P4F (TLNFNAKEFNPRSFSQ): the “DMS-derived PSSM value, position P4” value under setting [6] turned out to be 0.01173.
For the substance TLNPNAKEFNPRSFSQ A6D (TLNPNDKEFNPRSFSQ), where the note is “prey ATXN2, peptide TLNPNAKEFNPRSFSQ, A = wild type”, the “DMS-derived PSSM value, position A6” value stood at 0.
For “KSTLNPNAKEFNPRSF P13Q (KSTLNPNAKEFNQRSF)”, the “DMS-derived PSSM value, position P13” value under setting [4] worked out at 0.08339.
Consider “TLNPNAKEFNPRSF(averaged) A6V (TLNPNVKEFNPRSF)”, for which, where the note is “prey ATXN2, TLNPNAKEFNPRSF(averaged) over the two overlapping peptides, A = wild type”, the “DMS-derived PSSM value (averaged), position A6” value turned out to be 0.3197.
“TLNPNAKEFNPRSF(averaged) F9E (TLNPNAKEENPRSF)”: the “DMS-derived PSSM value (averaged), position F9” value under setting [2] was determined as 0.02703.
On to “KSTLNPNAKEFNPRSF N12A (KSTLNPNAKEFAPRSF)”, for which the “DMS-derived PSSM value, position N12” value under setting [9] turned out to be 0.1266.
On to “KSTLNPNAKEFNPRSF S15G (KSTLNPNAKEFNPRGF)”, for which the “DMS-derived PSSM value, position S15” value under setting [13] was 0.
As for TLNPNAKEFNPRSFSQ F9H (TLNPNAKEHNPRSFSQ), under setting [14], the “DMS-derived PSSM value, position F9” value came to 0.
As for “TLNPNAKEFNPRSF(averaged) P11F (TLNPNAKEFNFRSF)”, the “DMS-derived PSSM value (averaged), position P11” value under setting [12] amounted to 0.06425.
Consider KSTLNPNAKEFNPRSF S2V (KVTLNPNAKEFNPRSF), for which the “DMS-derived PSSM value, position S2” value under setting [13] amounted to 0.1043.
Regarding “TLNPNAKEFNPRSF(averaged) N3P (TLPPNAKEFNPRSF)”, under setting [1], the “DMS-derived PSSM value (averaged), position N3” value amounted to 0.
For the substance “TLNPNAKEFNPRSF(averaged) T1S (SLNPNAKEFNPRSF)”, the “DMS-derived PSSM value (averaged), position T1” value under setting [10] stood at 0.002379.
As to KSTLNPNAKEFNPRSF T3W (KSWLNPNAKEFNPRSF), under setting [5], the “DMS-derived PSSM value, position T3” value is recorded as 0.01564.
For “TLNPNAKEFNPRSF(averaged) K7W (TLNPNAWEFNPRSF)”, the “DMS-derived PSSM value (averaged), position K7” value (prey ATXN2, TLNPNAKEFNPRSF(averaged) over the two overlapping peptides, K = wild type) came to 0.01767.
As for “TLNPNAKEFNPRSF(averaged) P4V (TLNVNAKEFNPRSF)”, the “DMS-derived PSSM value (averaged), position P4” value under setting [12] was determined as 0.4012.
TLNPNAKEFNPRSFSQ K7N (TLNPNANEFNPRSFSQ): the “DMS-derived PSSM value, position K7” value (prey ATXN2, peptide TLNPNAKEFNPRSFSQ, K = wild type) came to 0.08014.
For the substance “TLNPNAKEFNPRSF(averaged) F9L (TLNPNAKELNPRSF)”, the “DMS-derived PSSM value (averaged), position F9” value under setting [2] was 0.
KSTLNPNAKEFNPRSF K9A (KSTLNPNAAEFNPRSF): the “DMS-derived PSSM value, position K9” value under setting [15] came to 0.002649.
TLNPNAKEFNPRSFSQ F9T (TLNPNAKETNPRSFSQ): the “DMS-derived PSSM value, position F9” value under setting [14] is listed as 0.05894.
In the case of “TLNPNAKEFNPRSF(averaged) P4A (TLNANAKEFNPRSF)”, the “DMS-derived PSSM value (averaged), position P4” value under setting [12] stood at 0.01026.
For TLNPNAKEFNPRSFSQ N5K (TLNPKAKEFNPRSFSQ), under setting [11], the “DMS-derived PSSM value, position N5” value came to 0.01257.
For “TLNPNAKEFNPRSF(averaged) T1W (WLNPNAKEFNPRSF)”, the “DMS-derived PSSM value (averaged), position T1” value under setting [10] is reported as 0.008583.
Turning to KSTLNPNAKEFNPRSF P6W (KSTLNWNAKEFNPRSF), the “DMS-derived PSSM value, position P6” value under setting [4] was 0.
Take “TLNPNAKEFNPRSF(averaged) P4Y (TLNYNAKEFNPRSF)”: the “DMS-derived PSSM value (averaged), position P4” value under setting [12] was 0.
As to KSTLNPNAKEFNPRSF L4T (KSTTNPNAKEFNPRSF), the “DMS-derived PSSM value, position L4” value under setting [16] is recorded as 0.
Turning to KSTLNPNAKEFNPRSF N5T (KSTLTPNAKEFNPRSF), under setting [9], the “DMS-derived PSSM value, position N5” value is reported as 0.
“TLNPNAKEFNPRSF(averaged) L2N (TNNPNAKEFNPRSF)”: for the setting “prey ATXN2, TLNPNAKEFNPRSF(averaged) over the two overlapping peptides, L = wild type”, the “DMS-derived PSSM value (averaged), position L2” value is on record as 0.
Turning to TLNPNAKEFNPRSFSQ N5L (TLNPLAKEFNPRSFSQ), under setting [11], the “DMS-derived PSSM value, position N5” value amounted to 0.06159.
In the case of “KSTLNPNAKEFNPRSF N12D (KSTLNPNAKEFDPRSF)”, under setting [9], the “DMS-derived PSSM value, position N12” value stood at 0.009433.
As to “TLNPNAKEFNPRSF(averaged) N5W (TLNPWAKEFNPRSF)”, under setting [1], the “DMS-derived PSSM value (averaged), position N5” value is given as 0.0006294.
KSTLNPNAKEFNPRSF K9Q (KSTLNPNAQEFNPRSF): the “DMS-derived PSSM value, position K9” value under setting [15] is listed as 0.02634.
With “TLNPNAKEFNPRSF(averaged) N10M (TLNPNAKEFMPRSF)”, the “DMS-derived PSSM value (averaged), position N10” value under setting [1] is 0.09167.
For the substance KSTLNPNAKEFNPRSF T3K (KSKLNPNAKEFNPRSF), the “DMS-derived PSSM value, position T3” value under setting [5] amounted to 0.
“TLNPNAKEFNPRSF(averaged) N5Q (TLNPQAKEFNPRSF)”: under setting [1], the “DMS-derived PSSM value (averaged), position N5” value was 0.02375.
For “KSTLNPNAKEFNPRSF N12H (KSTLNPNAKEFHPRSF)”, the “DMS-derived PSSM value, position N12” value under setting [9] was found to be 0.04066.
Regarding KSTLNPNAKEFNPRSF L4N (KSTNNPNAKEFNPRSF), under setting [16], the “DMS-derived PSSM value, position L4” value turned out to be 0.
TLNPNAKEFNPRSFSQ P4I (TLNINAKEFNPRSFSQ): the “DMS-derived PSSM value, position P4” value under setting [6] was 0.2422.
As to “KSTLNPNAKEFNPRSF E10A (KSTLNPNAKAFNPRSF)”, the “DMS-derived PSSM value, position E10” value under setting [5] is 0.002857.
Consider KSTLNPNAKEFNPRSF P6M (KSTLNMNAKEFNPRSF), for which the “DMS-derived PSSM value, position P6” value under setting [4] amounted to 0.
“KSTLNPNAKEFNPRSF R14P (KSTLNPNAKEFNPPSF)”: where the note is “prey ATXN2, peptide KSTLNPNAKEFNPRSF, R = wild type”, the “DMS-derived PSSM value, position R14” value worked out at 0.00803.
Consider KSTLNPNAKEFNPRSF S2D (KDTLNPNAKEFNPRSF), for which the “DMS-derived PSSM value, position S2” value under setting [13] is on record as 0.01347.
Take KSTLNPNAKEFNPRSF A8D (KSTLNPNDKEFNPRSF): the “DMS-derived PSSM value, position A8” value under setting [7] stood at 0.
With TLNPNAKEFNPRSFSQ N5T (TLNPTAKEFNPRSFSQ), under setting [11], the “DMS-derived PSSM value, position N5” value was 0.0193.
In the case of “TLNPNAKEFNPRSFSQ S13W (TLNPNAKEFNPRWFSQ)”, under setting [8], the “DMS-derived PSSM value, position S13” value was 0.02517.
